This passage reports Ki and IC50 results from ChEMBL document CHEMBL1127295, “Development of a model for the delta opioid receptor pharmacophore. 2. Conformationally restricted Phe3 replacements in the cyclic delta receptor selective tetrapeptide Tyr-c[D-Cys-Phe-D-Pen]OH (JOM-13)” (J Med Chem, 1994).

Assay [1] concerns the target T1, Mu-type opioid receptor (Cavia porcellus, UniProt P97266). In words: Binding affinity against mu opioid receptor using [3H]DAMGO in guinea pig ileum. The format is tissue-based.
The target of assay [2] is T2, Delta-type opioid receptor (Mus musculus, UniProt P32300). Briefly: Binding affinity for delta opioid receptor using [3H]DPDPE from mouse vas deferens.
T2 sequence (P32300 whole entry): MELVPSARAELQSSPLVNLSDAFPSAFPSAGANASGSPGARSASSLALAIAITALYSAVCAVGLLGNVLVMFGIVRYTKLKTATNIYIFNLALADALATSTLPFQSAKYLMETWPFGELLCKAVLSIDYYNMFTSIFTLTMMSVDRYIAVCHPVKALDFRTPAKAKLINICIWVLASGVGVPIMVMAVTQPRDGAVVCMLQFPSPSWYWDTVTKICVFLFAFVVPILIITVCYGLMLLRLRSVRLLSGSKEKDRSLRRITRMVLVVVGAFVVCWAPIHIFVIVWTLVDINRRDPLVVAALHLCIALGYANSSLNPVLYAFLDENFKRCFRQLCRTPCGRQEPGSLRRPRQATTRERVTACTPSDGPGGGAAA
Assay [3] has as its target T1, Mu-type opioid receptor. Briefly: Agonist activity was assessed in an guinea pig ileum (GPI) smooth muscle bioassay. The format is functional, tissue-based.
Assay [4] concerns the target T2, Delta-type opioid receptor. In words: Agonist activity was assessed in mouse vas deferens (MVD) smooth muscle bioassay. The format is functional, tissue-based, Muscle tissue.

T1 sequence (P97266 whole entry): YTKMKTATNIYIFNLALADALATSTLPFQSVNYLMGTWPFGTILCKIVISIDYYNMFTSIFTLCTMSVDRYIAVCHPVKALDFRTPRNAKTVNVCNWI

For `C[C@@H](c1ccccc1)[C@H]1NC(=O)[C@@H](NC(=O)[C@@H](N)Cc2ccc(O)cc2)CSSC(C)(C)[C@@H](C(=O)O)NC1=O`, the inhibition constant Ki (commonly the dissociation constant of the complex between target and ligand, obtained from inhibition or displacement) in assay [1] was above 10000 nM; in assay [2], 237 nM. The results for the IC50 in assay [3] and in assay [4] were above 30000 nM and 1110 nM, respectively.
The compound `CC1(C)SSC[C@H](NC(=O)[C@@H](N)Cc2ccc(O)cc2)C(=O)N[C@H](Cc2ccccc2)C(=O)N[C@@H]1C(=O)O` (stereo in doubt; 5) showed a Ki in assay [2] of 1.52 nM. The IC50 (in general, the midpoint of a concentration-inhibition curve) in assay [4] is 4.13 nM.
In assay [2], `CC1(C)SSC[C@H](NC(=O)[C@@H](N)Cc2ccc(O)cc2)C(=O)N[C@H](Cc2ccccc2)C(=O)N[C@@H]1C(=O)O` (stereo in doubt; 6) gave a Ki of 70 nM.
In turn, `CC1(C)SSC[C@H](NC(=O)[C@@H](N)Cc2ccc(O)cc2)C(=O)N[C@H](Cc2ccccc2)C(=O)N[C@@H]1C(=O)O` (stereo in doubt; 3) gave a Ki in assay [2] of 12.3 nM. In assay [4], this compound registered an IC50 of 51.8 nM.
The like results for `CC1(C)SSC[C@H](NC(=O)[C@@H](N)Cc2ccc(O)cc2)C(=O)N[C@H](Cc2ccccc2)C(=O)N[C@@H]1C(=O)O` (stereo in doubt; 4) were, in that order, 4.8 nM and 9.72 nM.
